# Measured values: patent US11957687B2 (REGENERON PHARMACEUTICALS, INC., priority 2019, dated 2024)
# Target: HSD17B13 (Homo sapiens (Human), UniProt Q7Z5P4)
# Experiment: HSD17B13 enzymatic inhibition assay (150 nM or 50 nM HSD17B13)
# Type: biochemical
# Conditions: 50 nM HSD17B13; read-out: Inhibition of 50 nM of HSD17B13 IC50
# HSD17B13, sequence (Q7Z5P4 other isoform, or with tags, fused parts or gaps): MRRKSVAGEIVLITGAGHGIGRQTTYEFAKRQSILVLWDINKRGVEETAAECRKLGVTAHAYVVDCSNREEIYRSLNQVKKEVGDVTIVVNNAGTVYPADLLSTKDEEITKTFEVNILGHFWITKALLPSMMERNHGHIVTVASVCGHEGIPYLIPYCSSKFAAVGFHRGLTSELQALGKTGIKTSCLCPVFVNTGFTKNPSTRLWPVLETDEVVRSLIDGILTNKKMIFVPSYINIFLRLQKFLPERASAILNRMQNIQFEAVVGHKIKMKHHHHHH
row,IC50,Structure (SMILES)
1,80 nM,"COc1ccc2c(c1)Sc1cc(N)ccc1C2NC(=O)c1ccc(C(F)(F)F)[nH]c1=O (stereo not shown) [Compound 411, N-(3-amino-6-methoxy-9H-thioxanthen-9-yl)-2-oxo-6-(trifluoromethyl)-1,2-dihydropyridine-3-carboxamide]"
2,110 nM,"Cc1ccc(C(CC2CCCC2)NC(=O)c2ccc(C(F)(F)F)[nH]c2=O)cc1 (stereo not shown) [Compound 412, N-(2-cyclopentyl-1-(p-tolyl)ethyl)-2-oxo-6-(trifluoromethyl)-1,2-dihydropyridine-3-carboxamide]"
3,880 nM,"O=C(NC1c2cc(OC(F)(F)F)ccc2-c2ccc(OC(F)(F)F)cc21)c1ccc(C(F)(F)F)[nH]c1=O [Compound 413, N-(2,7-bis(trifluoromethoxy)-9H-fluoren-9-yl)-2-oxo-6-(trifluoromethyl)-1,2-dihydropyridine-3-carboxamide]"
4,50 nM,"COc1ccc2c(c1)C(NC(=O)c1ccc(C(F)(F)F)[nH]c1=O)c1cc(OC)ccc1-2 [Compound 415, N-(2,7-dimethoxy-9H-fluoren-9-yl)-2-oxo-6-(trifluoromethyl)-1,2-dihydropyridine-3-carboxamide]"
5,70 nM,"Cc1ccc2c(c1)C(NC(=O)c1ccc(C(F)(F)F)[nH]c1=O)c1cc(C)ccc1-2 [Compound 418, N-(2,7-dimethyl-9H-fluoren-9-yl)-2-oxo-6-(trifluoromethyl)-1,2-dihydropyridine-3-carboxamide]"
6,130 nM,"CNc1ccc(C(NC(=O)c2ccc(C(F)(F)F)[nH]c2=O)c2ccc(C)cc2)cc1 (stereo not shown) [Compound 420, N-((4-(methylamino)phenyl)(p-tolyl)methyl)-2-oxo-6-(trifluoromethyl)-1,2-dihydropyridine-3-carboxamide]"
7,790 nM,"CC(F)(F)c1ccc(C(=O)NC2c3ccccc3Sc3ccccc32)c(=O)[nH]1 [Compound 423, 6-(1,1-difluoroethyl)-2-oxo-N-(9H-thioxanthen-9-yl)-1,2-dihydropyridine-3-carboxamide]"
8,1140 nM,"CC(F)(F)c1ccc(C(=O)NC2c3ccccc3Oc3ccccc32)c(=O)[nH]1 [Compound 424, 6-(1,1-difluoroethyl)-2-oxo-N-(9H-xanthen-9-yl)-1,2-dihydropyridine-3-carboxamide]"
9,270 nM,"Cc1ccc2c(c1)S(=O)(=O)c1cc(C)ccc1C2NC(=O)c1cc(N2CCNCC2)c(C(F)(F)F)[nH]c1=O [Compound 425, N-(3,6-dimethyl-10,10-dioxido-9H-thioxanthen-9-yl)-2-oxo-5-(piperazin-1-yl)-6-(trifluoromethyl)-1,2-dihydropyridine-3-carboxamide]"
10,130 nM,"Cc1ccc2c(c1)Sc1cc(C)ccc1C2NC(=O)c1cc(N2CCN(C)CC2)c(C(F)(F)F)[nH]c1=O [Compound 427, N-(3,6-dimethyl-9H-thioxanthen-9-yl)-5-(4-methylpiperazin-1-yl)-2-oxo-6-(trifluoromethyl)-1,2-dihydropyridine-3-carboxamide]"
11,20 nM,"Cc1ccc2c(c1)S(=O)(=O)c1cc(C)ccc1C2NC(=O)c1cc(NC2CCCCC2)c(C(F)(F)F)[nH]c1=O [Compound 428, 5-(cyclohexylamino)-N-(3,6-dimethyl-10,10-dioxido-9H-thioxanthen-9-yl)-2-oxo-6-(trifluoromethyl)-1,2-dihydropyridine-3-carboxamide]"
12,320 nM,"Cc1ccc2c(c1)Oc1cc(C)ccc1C2NC(=O)c1cc(CN2CCNCC2)c(C(F)(F)F)[nH]c1=O [Compound 429, N-(3,6-dimethyl-9H-xanthen-9-yl)-2-oxo-5-(piperazin-1-ylmethyl)-6-(trifluoromethyl)-1,2-dihydropyridine-3-carboxamide]"
13,40 nM,"Cc1ccc2c(c1)Oc1cc(C)ccc1C2NC(=O)c1cc(N2CCN(Cc3ccccc3)CC2)c(C(F)(F)F)[nH]c1=O [Compound 430, 5-(4-benzylpiperazin-1-yl)-N-(3,6-dimethyl-9H-xanthen-9-yl)-2-oxo-6-(trifluoromethyl)-1,2-dihydropyridine-3-carboxamide]"
14,130 nM,"Cc1ccc2c(c1)Sc1cc(C)ccc1C2NC(=O)c1cc(NC2CCCCC2)c(C(F)(F)F)[nH]c1=O [Compound 431, 5-(cyclohexylamino)-N-(3,6-dimethyl-9H-thioxanthen-9-yl)-2-oxo-6-(trifluoromethyl)-1,2-dihydropyridine-3-carboxamide]"
15,330 nM,"Cc1ccc2c(c1)Sc1cc(C)ccc1C2NC(=O)c1cc(N2CCNCC2)c(C(F)(F)F)[nH]c1=O [Compound 432, N-(3,6-dimethyl-9H-thioxanthen-9-yl)-2-oxo-5-(piperazin-1-yl)-6-(trifluoromethyl)-1,2-dihydropyridine-3-carboxamide]"
16,730 nM,"Cc1ccc2c(c1)Oc1cc(C)ccc1C2NC(=O)c1cc(NC2CCNCC2)c(C(F)(F)F)[nH]c1=O [Compound 433, N-(3,6-dimethyl-9H-xanthen-9-yl)-2-oxo-5-(piperidin-4-ylamino)-6-(trifluoromethyl)-1,2-dihydropyridine-3-carboxamide]"
17,110 nM,"Cc1ccc2c(c1)Oc1cc(C)ccc1C2NC(=O)c1cc(N2CCNCC2)c(C(F)(F)F)[nH]c1=O [Compound 434, N-(3,6-dimethyl-9H-xanthen-9-yl)-2-oxo-5-(piperazin-1-yl)-6-(trifluoromethyl)-1,2-dihydropyridine-3-carboxamide]"

row,IC50,Structure (SMILES)
1,1290 nM,"Cc1ccc2c(c1)Oc1cccc(C)c1C2NC(=O)c1cc(N2CCCCC2)c(C(F)(F)F)[nH]c1=O (stereo not shown) [Compound 437, N-(1,6-dimethyl-9H-xanthen-9-yl)-2-oxo-5-(piperidin-1-yl)-6-(trifluoromethyl)-1,2-dihydropyridine-3-carboxamide]"
2,560 nM,"Cc1ccc2c(c1)Oc1cccc(C)c1C2NC(=O)c1cc(N2CCOCC2)c(C(F)(F)F)[nH]c1=O (stereo not shown) [Compound 439, N-(1,6-dimethyl-9H-xanthen-9-yl)-5-morpholino-2-oxo-6-(trifluoromethyl)-1,2-dihydropyridine-3-carboxamide]"
3,700 nM,"COCCOc1ccc2c(c1)Oc1ccccc1C2NC(=O)c1ccc(C(F)(F)F)[nH]c1=O (stereo not shown) [Compound 440, N-(3-(2-methoxyethoxy)-9H-xanthen-9-yl)-2-oxo-6-(trifluoromethyl)-1,2-dihydropyridine-3-carboxamide]"
4,2560 nM,"Cc1ccc(C(NC(=O)c2ccc(C(F)(F)F)[nH]c2=O)c2ccccc2)c(S(C)(=O)=O)c1 (stereo not shown) [Compound 442, N-((4-methyl-2-(methylsulfonyl)phenyl)(phenyl)methyl)-2-oxo-6-(trifluoromethyl)-1,2-dihydropyridine-3-carboxamide]"
5,120 nM,"CCc1ccc(C(NC(=O)c2ccc(C(F)(F)F)[nH]c2=O)c2ccc(C)cc2)cc1 (stereo not shown) [Compound 443, N-((4-ethylphenyl)(p-tolyl)methyl)-2-oxo-6-(trifluoromethyl)-1,2-dihydropyridine-3-carboxamide]"
6,170 nM,"CCc1cccc(C(NC(=O)c2ccc(C(F)(F)F)[nH]c2=O)c2ccc(C)cc2)c1 (stereo not shown) [Compound 444, N-((3-ethylphenyl)(p-tolyl)methyl)-2-oxo-6-(trifluoromethyl)-1,2-dihydropyridine-3-carboxamide]"
7,270 nM,"COc1cccc(C(NC(=O)c2ccc(C(F)(F)F)[nH]c2=O)c2ccc(C)cc2)c1 (stereo not shown) [Compound 446, N-((3-methoxyphenyl)(p-tolyl)methyl)-2-oxo-6-(trifluoromethyl)-1,2-dihydropyridine-3-carboxamide]"
8,160 nM,"COc1ccc(C(NC(=O)c2ccc(C(F)(F)F)[nH]c2=O)c2ccc(C)cc2)cc1 (stereo not shown) [Compound 447, N-((4-methoxyphenyl)(p-tolyl)methyl)-2-oxo-6-(trifluoromethyl)-1,2-dihydropyridine-3-carboxamide]"
9,140 nM,"CSc1ccc(C(NC(=O)c2ccc(C(F)(F)F)[nH]c2=O)c2ccc(C)cc2)cc1 (stereo not shown) [Compound 448, N-((4-(methylthio)phenyl)(p-tolyl)methyl)-2-oxo-6-(trifluoromethyl)-1,2-dihydropyridine-3-carboxamide]"
10,970 nM,"COc1cc(C)ccc1C(NC(=O)c1ccc(C(F)(F)F)[nH]c1=O)c1ccccc1 (stereo not shown) [Compound 449, N-((2-methoxy-4-methylphenyl)(phenyl)methyl)-2-oxo-6-(trifluoromethyl)-1,2-dihydropyridine-3-carboxamide]"
11,1100 nM,"Cc1ccc(C(NC(=O)c2ccc(C(F)(F)F)[nH]c2=O)c2ccccc2S(C)(=O)=O)cc1 (stereo not shown) [Compound 450, N-((2-(methylsulfonyl)phenyl)(p-tolyl)methyl)-2-oxo-6-(trifluoromethyl)-1,2-dihydropyridine-3-carboxamide]"
12,1960 nM,"COc1c(C)cccc1C(NC(=O)c1ccc(C(F)(F)F)[nH]c1=O)c1ccccc1 (stereo not shown) [Compound 451, N-((2-methoxy-3-methylphenyl)(phenyl)methyl)-2-oxo-6-(trifluoromethyl)-1,2-dihydropyridine-3-carboxamide]"
13,7030 nM,"Cc1cccc(C(NC(=O)c2ccc(C(F)(F)F)[nH]c2=O)c2ccccc2S(C)(=O)=O)c1 (stereo not shown) [Compound 452, N-((2-(methylsulfonyl)phenyl)(m-tolyl)methyl)-2-oxo-6-(trifluoromethyl)-1,2-dihydropyridine-3-carboxamide]"
14,3230 nM,"Cc1cccc(C(NC(=O)c2ccc(C(F)(F)F)[nH]c2=O)c2ccccc2)c1S(C)(=O)=O (stereo not shown) [Compound 453, N-((3-methyl-2-(methylsulfonyl)phenyl) (phenyl)methyl)-2-oxo-6-(trifluoromethyl)-1,2-dihydropyridine-3-carboxamide]"
15,1810 nM,"CCc1cccc(C(NC(=O)c2ccc(C(F)(F)F)[nH]c2=O)c2ccccc2OC)c1 (stereo not shown) [Compound 454, N-((3-ethylphenyl)(2-methoxyphenyl)methyl)-2-oxo-6-(trifluoromethyl)-1,2-dihydropyridine-3-carboxamide]"
16,870 nM,"CCc1cccc(C(NC(=O)c2ccc(C(F)(F)F)[nH]c2=O)c2ccccc2SC)c1 (stereo not shown) [Compound 455, N-((3-ethylphenyl)(2-(methylthio)phenyl)methyl)-2-oxo-6-(trifluoromethyl)-1,2-dihydropyridine-3-carboxamide]"
17,4830 nM,"CCc1cccc(C(NC(=O)c2ccc(C(F)(F)F)[nH]c2=O)c2ccccc2S(C)(=O)=O)c1 (stereo not shown) [Compound 456, N-((3-ethylphenyl)(2-(methylsulfonyl)phenyl)methyl)-2-oxo-6-(trifluoromethyl)-1,2-dihydropyridine-3-carboxamide]"
